Results taken from patent US20260077055A1, “COMPOSITIONS OF POLYPLEXES AND SAPONINS” (SAPREME TECHNOLOGIES B.V., priority 2022, published 2026).

Tested on: EGFR+ A431 cells
Experiment: Cell viability (MTS) after polyplex transfection of A431 cells
Assay type: cell-based
Method: Spectrophotometry: Concentrations were determined using either a Thermo Nanodrop 2000 spectrometer or Perkin Elmer Lambda 365 Spectrophotometer. DLS measurements: DLS measurements were performed on a Malvern Nano ZS (Malvern Instruments, U.K.), operating at 633 nm with a 173° scattering angle, at 25 or 37° C. DLS mean diameters were obtained from the intensity particle size distribution provided by Malvern Zetasizer Software. DLS histograms were obtained from the intensity particle size distributions. Zeta-potential: The zeta-potential values of the polyplexes were obtained by laser doppler anemometry (LDA), measuring the mean electrophoretic mobility (Malvern Zetasizer Nano ZS, Malvern Instruments, U.K.). Measurements were performed in 10 mM HEPES pH 7.1, 150 mM NaCl. TEM measurements: TEM measurements were performed on a JEOL JEM-1011 operated at 100 kV electron microscope, equipped with a camera S5 MegaView G2. A drop of a solution of polyplexes (0.1 mg/mL) was settled on a PELCO® TEM carbon type-B film copper grid and allowed to dry at room temperature for 1 h. Infrared Spectroscopy: FT-IR spectra were recorded on a Bruker Vertex 70v, equipped with a RockSolid interferometer, after preparing the samples (1-2 mg) as KBr pellets. Spectra were processed using OPUS 7.8 software (Bruker). NMR Spectroscopy: 1H NMR spectra were recorded on a 11.7 T Bruker DRX-500 spectrometer. Chemical shifts are reported in ppm (o units) downfield from the HOD residual solvent peak (CD3OD). Experiments were recorded acquiring 64-512 scans, with a pre-scan delay (d1) of 12 s, and an acquisition time (aq) of 4 s at 300 K. 13C NMR spectrum was recorder on a 9.39 T Varian Innova 400 spectrometer. MestReNova 14.2 software (Mestrelab Research) was used for spectra processing. Cell culture conditions and treatments: HEK293FT, A431, A2058, Neuro2A, Hepa1-6 and MDA-MB 468 were maintained in 10% FBS-supplemented DMEM medium (PAN-Biotech GmbH, or Lonza Group, Basel, Switzerland)+Pen/Strep at 37° C. with 5% CO2. […] SO1861-EMCH was conjugated into/onto these polyplexes or co-administrated at 966 or 4000 nM to the different cell lines in vitro (as indicated). For this, cells were seeded in a 96 well plate at 5.000-10.000 c/w in 100 μL/well and incubated overnight at 37° C. Before treatment, the mAb-SO1861 and polyplexes were diluted separately in DPBS (PAN-Biotech GmbH) to 10× the required final concentration. The cells received 80 μL/well fresh media, followed by 20 μL/well polyplex solution and 20 μL/well saponin solution. In particular, before K16-polyplex treatments, K16-polyplexes were formulated in 10 mM HEPES, incubated for 30 min at room temperature and then diluted with complete cell culture medium. The complete cell culture medium was exchanged against 100 μL transfection medium. For co-administration of SO1861-EMCH, the transfection medium was supplemented with 2 μg/mL (=966 nM) SO1861-EMCH. Control transfections were performed with Lipofectamine™ 3000 Transfection Reagent (Thermo Fisher Scientific) according to the manufacturer's instruction, using either […] or 100 ng plasmid and with a media change 4-5 hrs after transfection. […] After treatment, the cells were incubated for 72 hr at 37° C. before the cell viability was determined by a MTS-assay performed according to the manufacturer's instruction (CellTiter 96® AQueous One Solution Cell Proliferation Assay, Promega). […]

CC(=O)OC1C(C)OC(OC2C(C)OC(OC(=O)[C@]34CCC(C)(C)CC3C3=CCC5[C@@]6(C)CC[C@H](OC7OC(C(=O)O)C(O)C(OC8OCC(O)C(O)C8O)C7OC7OC(CO)C(O)C(O)C7O)[C@@](C)(/C=N/NC(=O)CCCCCN7C(=O)C=CC7=O)C6CC[C@@]5(C)[C@]3(C)C[C@H]4O)C(OC3OC(C)C(OC4OCC(O)C(OC5OC(CO)C(O)C(O)C5O)C4O)C(O)C3O)C2O)C(O)C1OC1OCC(O)C(O)C1O (some centres unmarked) [SO1861-EMCH]
cell killing activity / saporin gene delivery, K16C npSaporin polyplexes (K16C alone up to about 5000 μM of plasmids (printed), SO1861-EMCH = free, co-administered with K16C-polyplexes): enhanced cell killing activity
cytoplasmic delivery of npSaporin / cell killing (co-administered with PAMAM G5(PEG-N3)6.2 npSaporin polyplexes, 73 nM Cetuximab-SO1861 or 4 μM SO1861-EMCH, 72 h): strongly enhanced the cytoplasmic delivery of npSaporin
